In patent US5817692A, “Endoperoxides useful as antiparasitic agents” (priority 1996, dated 1998):
Like-named read-outs stand apart in the source and are kept apart here.

Assays:
L929 cells = assay: cytotoxicity to L929 cells, MTT assay (viability and replication); type: cell-based; parameters: Toxicity, Mean: unit not given here; details: for Toxicity, Score / Toxicity, Mean / inhibition at 0.1 µM / inhibition at 1 µM / inhibition at 10 µM / inhibition at 50 µM: L929 cells; for Toxicity, Mean: MTT; for inhibition at 0.1 µM / inhibition at 1 µM / inhibition at 10 µM / inhibition at 50 µM: Mus musculus, read-out: Toxicity, % of control (inhibition)
Protocol: Toxoplasma gondii is the causative agent of cerebral toxoplasmic encephalitis, an AIDS-related opportunistic infection. The biological activity of the endoperoxide JHU 2886 of the present invention was measured against Toxoplasma gondii cultured in L929 cells.
More specifically, the cytotoxicity of synthetic organic endoperoxide JHU 2886 was tested in L929 cells by measuring the viability and replication of exposed cells. The cytotoxicity of the compound to the cultured cells was measured using the MTT assay (Promega kit), according to the procedure of Carmichael et al. (18). MTT is an abbreviation for [3-(4,5-dimethylthiazol-2-yl)-2,5-dephenyltetrazolium bromide].
This compound is referred to as JHU 2886 in Table 1. In this experiment atovaquone and artemisinin were used as positive controls. Atovaquone is a broad-spectrum anti-infective drug having antimalarial and antitoxoplasmosis activity (19).
^1 The cytotoxicity of each compound for the cultured cells was
measured using the MTT assay (Promega kit) and inhibition of the […]

Toxoplasma gondii = assay: inhibition of intracellular replication of T. gondii in infected L929 cells, uracil incorporation assay; type: cell-based; parameters: Activity, Mean: unit not given here; details: for Activity, Mean: uracil incorporation; for inhibition at 1 µM / inhibition at 10 µM / inhibition at 50 µM / inhibition at 0.1 µM: Toxoplasma gondii, L929, read-out: Activity, % of control (inhibition)
Protocol: Toxoplasma gondii is the causative agent of cerebral toxoplasmic encephalitis, an AIDS-related opportunistic infection. The biological activity of the endoperoxide JHU 2886 of the present invention was measured against Toxoplasma gondii cultured in L929 cells. The inhibitory activity of the synthetic organic endoperoxide was tested by measuring the intracellular replication of T. gondii in infected L929 cells. The inhibition of the intracellular replication of T. gondii was determined using the uracil incorporation assay (20). […] This compound is referred to as JHU 2886 in Table 1. In this experiment atovaquone and artemisinin were used as positive controls. Atovaquone is a broad-spectrum anti-infective drug having antimalarial and antitoxoplasmosis activity (19). | measured using the MTT assay (Promega kit) and inhibition of the | intracellular replication of T. gondii was determined using the uracil | incorporation assay.

c1ccc(C23CCCC(c4ccccc4)(CC2)OO3)cc1 [JHU 2886]
toxicity in L929 cells, in words (L929 cells; 50 μM): some toxicity
toxicity in L929 cells, in words (L929 cells; 24, 48 and 72 hours, concentrations as high as 10 μM): little toxicity
Toxicity, Score (L929 cells; 24 hours, dose 0.1 μM): 1 (≤20%)
Toxicity, Mean (L929 cells; 24 hours, dose 0.1 μM): 0.129
Toxicity, Score (L929 cells; 24 hours, dose 1.0 μM): 0
Toxicity, Mean (L929 cells; 24 hours, dose 1.0 μM): 0.133
Toxicity, Score (L929 cells; 24 hours, dose 10.0 μM): 0
Toxicity, Mean (L929 cells; 24 hours, dose 10.0 μM): 0.130
Toxicity, Score (L929 cells; 24 hours, dose 50.0 μM): 2 (>20%-≤40%)
Toxicity, Mean (L929 cells; 24 hours, dose 50.0 μM): 0.089
Toxicity, Score (L929 cells; 48 hours, dose 0.1 μM): 0
Toxicity, Mean (L929 cells; 48 hours, dose 0.1 μM): 0.227
Toxicity, Score (L929 cells; 48 hours, dose 1.0 μM): 0
Toxicity, Mean (L929 cells; 48 hours, dose 1.0 μM): 0.219
Toxicity, Score (L929 cells; 48 hours, dose 10.0 μM): 0
Toxicity, Mean (L929 cells; 48 hours, dose 10.0 μM): 0.217
Toxicity, Score (L929 cells; 48 hours, dose 50.0 μM): 2 (>20%-≤40%)
Toxicity, Mean (L929 cells; 48 hours, dose 50.0 μM): 0.147
Toxicity, Score (L929 cells; 72 hours, dose 0.1 μM): 0
Toxicity, Mean (L929 cells; 72 hours, dose 0.1 μM): 0.479
Toxicity, Score (L929 cells; 72 hours, dose 1.0 μM): 0
Toxicity, Mean (L929 cells; 72 hours, dose 1.0 μM): 0.460
Toxicity, Score (L929 cells; 72 hours, dose 10.0 μM): 0
Toxicity, Mean (L929 cells; 72 hours, dose 10.0 μM): 0.448
Toxicity, Score (L929 cells; 72 hours, dose 50.0 μM): 2 (>20%-≤40%)
Toxicity, Mean (L929 cells; 72 hours, dose 50.0 μM): 0.275
inhibition at 0.1 µM (L929 cells; 24 hours, dose 0.1 μM): 0.26%
inhibition at 1 µM (L929 cells; 24 hours, dose 1.0 μM): 0%
inhibition at 10 µM (L929 cells; 24 hours, dose 10.0 μM): 0%
inhibition at 50 µM (L929 cells; 24 hours, dose 50.0 μM): 31.2%
inhibition at 0.1 µM (L929 cells; 48 hours, dose 0.1 μM): 0%
inhibition at 1 µM (L929 cells; 48 hours, dose 1.0 μM): 0%
inhibition at 10 µM (L929 cells; 48 hours, dose 10.0 μM): 0%
inhibition at 50 µM (L929 cells; 48 hours, dose 50.0 μM): 30.4%
inhibition at 0.1 µM (L929 cells; 72 hours, dose 0.1 μM): 0%
inhibition at 1 µM (L929 cells; 72 hours, dose 1.0 μM): 0%
inhibition at 10 µM (L929 cells; 72 hours, dose 10.0 μM): 0%
inhibition at 50 µM (L929 cells; 72 hours, dose 50.0 μM): 37.4%
antiparasitic activity, in words (Toxoplasma gondii; 24 and 48 hours, all concentrations tested): significant antiparasitic activity
Activity, Score (Toxoplasma gondii; 24 hours, dose 0.1 μM): 2 (>20%-≤40%)
Activity, Mean (Toxoplasma gondii; 24 hours, dose 0.1 μM): 6079
Activity, Score (Toxoplasma gondii; 24 hours, dose 1.0 μM): 3 (>40%-≤70%)
Activity, Mean (Toxoplasma gondii; 24 hours, dose 1.0 μM): 2668
Activity, Score (Toxoplasma gondii; 24 hours, dose 10.0 μM): 4 (>70%-≤90%)
Activity, Mean (Toxoplasma gondii; 24 hours, dose 10.0 μM): 1967
Activity, Score (Toxoplasma gondii; 24 hours, dose 50.0 μM): 4 (>70%-≤90%)
Activity, Mean (Toxoplasma gondii; 24 hours, dose 50.0 μM): 2104
Activity, Score (Toxoplasma gondii; 48 hours, dose 0.1 μM): 1 (≤20%)
Activity, Mean (Toxoplasma gondii; 48 hours, dose 0.1 μM): 14841
Activity, Score (Toxoplasma gondii; 48 hours, dose 1.0 μM): 1 (≤20%)
Activity, Mean (Toxoplasma gondii; 48 hours, dose 1.0 μM): 12880
Activity, Score (Toxoplasma gondii; 48 hours, dose 10.0 μM): 4 (>70%-≤90%)
Activity, Mean (Toxoplasma gondii; 48 hours, dose 10.0 μM): 4428
Activity, Score (Toxoplasma gondii; 48 hours, dose 50.0 μM): 4 (>70%-≤90%)
Activity, Mean (Toxoplasma gondii; 48 hours, dose 50.0 μM): 1808
antiparasitic activity, in words (Toxoplasma gondii; 72 hours, 1 μM and above): significant activity
Activity, Score (Toxoplasma gondii; 72 hours, dose 0.1 μM): 1 (≤20%)
Activity, Mean (Toxoplasma gondii; 72 hours, dose 0.1 μM): 6934
Activity, Score (Toxoplasma gondii; 72 hours, dose 1.0 μM): 1 (≤20%)
Activity, Mean (Toxoplasma gondii; 72 hours, dose 1.0 μM): 6219
Activity, Score (Toxoplasma gondii; 72 hours, dose 10.0 μM): 4 (>70%-≤90%)
Activity, Mean (Toxoplasma gondii; 72 hours, dose 10.0 μM): 1321
Activity, Score (Toxoplasma gondii; 72 hours, dose 50.0 μM): 4 (>70%-≤90%)
Activity, Mean (Toxoplasma gondii; 72 hours, dose 50.0 μM): 1252
inhibition at 1 µM (Toxoplasma gondii; 24 hours, dose 1.0 μM): 69.6%
inhibition at 10 µM (Toxoplasma gondii; 24 hours, dose 10.0 μM): 77.6%
inhibition at 50 µM (Toxoplasma gondii; 24 hours, dose 50.0 μM): 76%
inhibition at 0.1 µM (Toxoplasma gondii; 48 hours, dose 0.1 μM): 6.18%
inhibition at 1 µM (Toxoplasma gondii; 48 hours, dose 1.0 μM): 18.6%
inhibition at 10 µM (Toxoplasma gondii; 48 hours, dose 10.0 μM): 72%
inhibition at 50 µM (Toxoplasma gondii; 48 hours, dose 50.0 μM): 88.6%
inhibition at 0.1 µM (Toxoplasma gondii; 72 hours, dose 0.1 μM): 3.24%
inhibition at 1 µM (Toxoplasma gondii; 72 hours, dose 1.0 μM): 13.2%
inhibition at 10 µM (Toxoplasma gondii; 72 hours, dose 10.0 μM): 81.6%
inhibition at 50 µM (Toxoplasma gondii; 72 hours, dose 50.0 μM): 82.5%

O=C1C(O)=C([C@H]2CC[C@H](c3ccc(Cl)cc3)CC2)C(=O)c2ccccc21 [Atovaquone]
Toxicity, Score (L929 cells; 24 hours, dose 0.1 μM): 1 (≤20%)
Toxicity, Mean (L929 cells; 24 hours, dose 0.1 μM): 0.095
Toxicity, Score (L929 cells; 24 hours, dose 1.0 μM): 1 (≤20%)
Toxicity, Mean (L929 cells; 24 hours, dose 1.0 μM): 0.093
Toxicity, Score (L929 cells; 24 hours, dose 10.0 μM): 1 (≤20%)
Toxicity, Mean (L929 cells; 24 hours, dose 10.0 μM): 0.092
Toxicity, Score (L929 cells; 24 hours, dose 50.0 μM): 2 (>20%-≤40%)
Toxicity, Mean (L929 cells; 24 hours, dose 50.0 μM): 0.089
Toxicity, Score (L929 cells; 48 hours, dose 0.1 μM): 0
Toxicity, Mean (L929 cells; 48 hours, dose 0.1 μM): 0.214
Toxicity, Score (L929 cells; 48 hours, dose 1.0 μM): 1 (≤20%)
Toxicity, Mean (L929 cells; 48 hours, dose 1.0 μM): 0.211
Toxicity, Score (L929 cells; 48 hours, dose 10.0 μM): 1 (≤20%)
Toxicity, Mean (L929 cells; 48 hours, dose 10.0 μM): 0.204
Toxicity, Score (L929 cells; 48 hours, dose 50.0 μM): 3 (>40%-≤70%)
Toxicity, Mean (L929 cells; 48 hours, dose 50.0 μM): 0.106
Toxicity, Score (L929 cells; 72 hours, dose 0.1 μM): 0
Toxicity, Mean (L929 cells; 72 hours, dose 0.1 μM): 0.473
Toxicity, Score (L929 cells; 72 hours, dose 1.0 μM): 0
Toxicity, Mean (L929 cells; 72 hours, dose 1.0 μM): 0.464
Toxicity, Score (L929 cells; 72 hours, dose 10.0 μM): 0
Toxicity, Mean (L929 cells; 72 hours, dose 10.0 μM): 0.456
Toxicity, Score (L929 cells; 72 hours, dose 50.0 μM): 3 (>40%-≤70%)
Toxicity, Mean (L929 cells; 72 hours, dose 50.0 μM): 0.161
inhibition at 0.1 µM (L929 cells; 24 hours, dose 0.1 μM): 15.6%
inhibition at 1 µM (L929 cells; 24 hours, dose 1.0 μM): 17.4%
inhibition at 10 µM (L929 cells; 24 hours, dose 10.0 μM): 18.3%
inhibition at 50 µM (L929 cells; 24 hours, dose 50.0 μM): 21.2%
inhibition at 0.1 µM (L929 cells; 48 hours, dose 0.1 μM): 0%
inhibition at 1 µM (L929 cells; 48 hours, dose 1.0 μM): 1.09%
inhibition at 10 µM (L929 cells; 48 hours, dose 10.0 μM): 4.53%
inhibition at 50 µM (L929 cells; 48 hours, dose 50.0 μM): 50.2%
inhibition at 0.1 µM (L929 cells; 72 hours, dose 0.1 μM): 0%
inhibition at 1 µM (L929 cells; 72 hours, dose 1.0 μM): 0%
inhibition at 10 µM (L929 cells; 72 hours, dose 10.0 μM): 0%
inhibition at 50 µM (L929 cells; 72 hours, dose 50.0 μM): 63.2%
therapeutic index (ratio of activity to toxicity), quotient (Toxoplasma gondii; 1 μM, T. gondii activity / L929 toxicity): 5.6
Activity, Score (Toxoplasma gondii; 24 hours, dose 0.1 μM): 4 (>70%-≤90%)
Activity, Mean (Toxoplasma gondii; 24 hours, dose 0.1 μM): 3096
Activity, Score (Toxoplasma gondii; 24 hours, dose 1.0 μM): 5 (>90%)
Activity, Mean (Toxoplasma gondii; 24 hours, dose 1.0 μM): 693
Activity, Score (Toxoplasma gondii; 24 hours, dose 10.0 μM): 5 (>90%)
Activity, Mean (Toxoplasma gondii; 24 hours, dose 10.0 μM): 612
Activity, Score (Toxoplasma gondii; 24 hours, dose 50.0 μM): 5 (>90%)
Activity, Mean (Toxoplasma gondii; 24 hours, dose 50.0 μM): 1042
Activity, Score (Toxoplasma gondii; 48 hours, dose 0.1 μM): 3 (>40%-≤70%)
Activity, Mean (Toxoplasma gondii; 48 hours, dose 0.1 μM): 6865
Activity, Score (Toxoplasma gondii; 48 hours, dose 1.0 μM): 5 (>90%)
Activity, Mean (Toxoplasma gondii; 48 hours, dose 1.0 μM): 729
Activity, Score (Toxoplasma gondii; 48 hours, dose 10.0 μM): 5 (>90%)
Activity, Mean (Toxoplasma gondii; 48 hours, dose 10.0 μM): 399
Activity, Score (Toxoplasma gondii; 48 hours, dose 50.0 μM): 5 (>90%)
Activity, Mean (Toxoplasma gondii; 48 hours, dose 50.0 μM): 236
Activity, Score (Toxoplasma gondii; 72 hours, dose 0.1 μM): 3 (>40%-≤70%)
Activity, Mean (Toxoplasma gondii; 72 hours, dose 0.1 μM): 2940
Activity, Score (Toxoplasma gondii; 72 hours, dose 1.0 μM): 4 (>70%-≤90%)
Activity, Mean (Toxoplasma gondii; 72 hours, dose 1.0 μM): 1272
Activity, Score (Toxoplasma gondii; 72 hours, dose 10.0 μM): 5 (>90%)
Activity, Mean (Toxoplasma gondii; 72 hours, dose 10.0 μM): 446
Activity, Score (Toxoplasma gondii; 72 hours, dose 50.0 μM): 5 (>90%)
Activity, Mean (Toxoplasma gondii; 72 hours, dose 50.0 μM): 230
inhibition at 0.1 µM (Toxoplasma gondii; 24 hours, dose 0.1 μM): 78.4%
inhibition at 1 µM (Toxoplasma gondii; 24 hours, dose 1.0 μM): 95.2%
inhibition at 10 µM (Toxoplasma gondii; 24 hours, dose 10.0 μM): 95.7%
inhibition at 50 µM (Toxoplasma gondii; 24 hours, dose 50.0 μM): 92.7%
inhibition at 0.1 µM (Toxoplasma gondii; 48 hours, dose 0.1 μM): 60.1%
inhibition at 1 µM (Toxoplasma gondii; 48 hours, dose 1.0 μM): 95.8%
inhibition at 10 µM (Toxoplasma gondii; 48 hours, dose 10.0 μM): 97.7%
inhibition at 50 µM (Toxoplasma gondii; 48 hours, dose 50.0 μM): 98.6%
inhibition at 10 µM (Toxoplasma gondii; 72 hours, dose 10.0 μM): 93.8%
inhibition at 50 µM (Toxoplasma gondii; 72 hours, dose 50.0 μM): 96.8%
